Measurements: patent US7968558B2, “Amidine derivatives of 2-heteroaryl-quinazolines and quinolines; potent analgesics and anti-inflammatory agents” (Rottapharm S.p.A., priority 2006, dated 2011)
Structures can show the parent of a compound that is named as a salt.

Assays:
[1] = system: IL-1β induced PGE2 production; assay: PGE2 production induced by IL-1β in chondrocyte cell culture; format: cell-based, rabbit; conditions: at 10 μM
From the text: (§1) Conversely, compounds of the invention are able to inhibit, at micromolar concentration, IL-1β induced PGE2 production in cellular systems. This inhibition effect on the production of the pro-inflammatory mediator PGE2, instead of to be ascribed to a direct COX-2 inhibition, as happens with Celecoxib and other COX-2 inhibitors, is in this case due to inhibition of cytokine induced COX-2 expression as proven in cellular systems.
(§2) Effectiveness in inhibition of PGE2 production induced by IL-1β in chondrocyte cell culture, as well as inhibition in IL-1β induced COX-2 expression in SW1353 human chondrosarcoma cell line, is summarized in Table 2, for representative compounds of the invention.

COX-2 expression = assay: IL-1β induced COX-2 expression in SW1353 human chondrosarcoma cell line; format: cell-based; conditions: at 10 μM
From the text: as §1, §2

IL-1 production = IL-1 production in IL-1 stimulated human chondrosarcoma cell line; format: cell-based; conditions: Compound concentration is 10 μM
From the text: (§3) The compounds of the invention have been found effective in interfering with cytokine production in several cell lines, representative examples of this effect are reported in Table 3, for two representative cytokines, in IL-1 stimulated human chondrosarcoma cell line.

IL-6 production = IL-6 production in IL-1 stimulated human chondrosarcoma cell line; format: cell-based; conditions: Compound concentration is 10 μM
From the text: as §3

[2] = system: Zymosan-induced mechanical hyperalgesia; assay: Zymosan-induced mechanical hyperalgesia (Randall-Selitto); format: in vivo, rat
Protocol: (§4) The interplantar injection of Zymosan-induced mechanical hyperalgesia was used as a model of inflammatory pain (Meller, Neuropharmacology, 1994, 33, 1471-1478). In this model, typically a male Sprague-Dawley or Wistar rat (200-250 g) receives an interplantar injection of 3 mg/100 μl zymosan into one hind paw. A marked inflammation occurs in this hind paw. Drugs are administered orally for evaluation of efficacy, 30 min. before the inflammatory insult. The hyperalgesia induced by zymosan administration was evaluated using the Randall-Selitto method (Arch. Int. Pharmacodyn., 1957, 111, 409). The quantitation of the analgesic effect is achieved by an analgesimeter, which consist in applying to the inflamed paw an increasing weight (from 130-140 g up to 500 g). The difference in the mechanical pain threshold between the basal value (generally 230-250 g) and the one tolerated by the animals treated with the drug, determined 4 hours after the inflammatory challenge, is defined as mechanical hyperalgesia.
(§5) Mechanical hyperalgesia is expressed for the compounds of the invention as ED50, which is the dose of the administered compound able to increase the pain threshold by 50% in comparison with the group of control animals. The corresponding ED100, representing the dose able of reducing of 100% the pain threshold, can be calculated for those cases where there is a linear dose-response relationship. In vivo anti-inflammatory effect exerted by the compound of the invention can be assessed in the same Zymosan induced inflammation test described above, by measuring the volume of the oedema induced by the inflammatory agent. The oedema was evaluated as the increase in the volume of the Zymosan injected paw within a time of 0-2 hrs. The measurements of the variation of the oedema volume of the paw were recorded using hydroplethysmometer, which consists of two plastic cuvettes containing a surfactant liquid, the larger one being used for immersion of the paw, connected to the smaller one which contains a trans-ducer capable of recording small displacements of the volume used for the measure. The paw is immersed in the cuvettes up to the tibiotarsal joint. The volume of the liquid displaced is proportional to the extent of the inflammation. The efficacy of the compounds of the invention in preventing oedema formation is expressed as ED30, and is measured 2 hours after the inflammatory challenge, and represents the dose able of reducing of 30%, the Zymosan induced paw volume increase in comparison to control animals (animals treated with Zymosan but treated with only distilled water instead of the testing compound). The corresponding ED50, representing the dose able of reducing of 50% the zymosan induced paw volume increase, can be calculated for those cases where there is a linear dose-response relationship.
(§6) In both the experiments, for each test compound, at least three doses were used, with 10 animals per group. Compounds of the invention were tested at 10, 20 and 40 mg/Kg.

[3] = system: Zymosan induced paw volume increase; assay: Zymosan-induced paw oedema; format: in vivo, rat
Protocol: as §4, §5, §6

CFA-induced hyperalgesia = assay: CFA model of chronic inflammatory pain; format: in vivo, rat
[4] = system: mechanical hyperalgesia associated with STZ-induced diabetes; assay: STZ-induced diabetes mechanical hyperalgesia (neuropathic pain); format: in vivo, rat
Protocol: Streptozotocin (STZ)-induced diabetes in the rat has been increasingly used as a model of painful diabetic neuropathy to assess the efficacies of potential analgesic agents (C. Courteix, Pain 1993, 53, 81-8). The compounds of the invention were tested for efficacy in reducing mechanical hyperalgesia associated with STZ-induced diabetes in the rat, according to the experimental model as described by the literature. Diabetes was produced with the injection of a single dose (75 mg/Kg i.p.) of STZ. In the following four weeks after the induction of diabetes the clinical symptoms (weight, body and skin temperature, motility and hyperglycemia) progressively developed by the animals, are strictly monitored. After four weeks, the scores obtained in diabetic rats to various pain stimuli (in particular mechanical stimuli) were grater than those in normal rats, indicating hyperalgesia. The hyperalgesia induced by diabetes was evaluated using the Randall-Selitto method as above described, and quantitated using the analgesimeter. Also in this case, the difference in the mechanical pain threshold between the basal value (generally 230-250 g) and the one tolerated by the animals treated with the drug, is defined as mechanical hyperalgesia. The compounds of the invention were administered i.p. (solution, Tween 80, 10% in saline) at different doses, and mechanical hyperalgesia was measured at the reported time, as maximum percent effect (MPE) which represents the difference (%) in pain threshold between the animals treated with the drug and the controls that received only the vehicle, compared with the weight borne by naïf non-diabetic controls. A 100% protection means that the diabetic animals treated with the compound can tolerate the same stimulus (weight) as the naïf non-diabetic animals. MPE higher than 100% means that the diabetic animal treated with the compound can tolerate stimuli (weight) higher than the control non-diabetic animals (hypoalgesia).

[5] = system: acetic acid-induced abdominal writhes; assay: Acetic acid-induced writhing test; format: in vivo, mice; conditions: for MPE (%): 30 min. before acetic acid
Protocol: With the aim of assessing whether the compounds of the invention are able to inhibit responses to peritoneal irritation-induced visceral pain, the acetic acid-induced writhing assay was used in mice to determine the degree of anti-nociception.
The writhing test is a model of inflammatory pain that has long been used as a screening tool for evaluation of analgesic and anti-inflammatory agents (HDJ Collier, B. J. Pharmacol Chemother., 1968, 32, 295-310). The test was performed inducing nociception by an i.p. injection of acetic acid 1%, 0.1 mL/10 g of body weight. Mice were pre-treated (subcutaneously, s.c., three different doses: 3, 10, 30 mg/Kg) with the tested compounds 30 min. before acetic acid injection, while control animals received a similar volume of saline solution. A group of mice was treated with Paracetamol (200 mg/Kg, s.c.) as reference drug. The number of abdominal writhes (full extension of both hind paws) was cumulatively counted every 5 minutes over a period of 20 min. immediately after the acetic acid injection. The anti-nociceptive activity was expressed as inhibition of abdominal writhes as maximum percent effect (MPE), which represents the difference (%) in pain threshold between the animals treated with the drug and the ones that received only the vehicle.

Structure (SMILES): CC(=N)Nc1ccc2nc(-c3ccc4c(c3)OCO4)ccc2c1 [Example 2, N-[2-(1,3-benzodioxol-5-yl)quinolin-6-yl]acetamidine dihydrochloride]
- Effects on PGE2 production in rabbit Chondrocyte culture, % at 10 μM [1]: 70% at 10 μM
- Inhibition of COX-2 expression in SW1353 human chondrosarcoma cell line, % at 10 μM (COX-2 expression): 59% at 10 μM
- Inhibition (%) of IL-1 production (IL-1 production): 45%
- Inhibition (%) of IL-6 production (IL-6 production): 78%
- ED50 ([2]; Rattus norvegicus, read-out: Analgesia ED50): 10.7 mg/kg
- Analgesia ED100 ([2]; oral, calculated from linear dose-response): 22 mg/kg
- ED50 ([3]; Rattus norvegicus, po, read-out: Oedema Reduction ED50): 98 mg/kg
- Oedema Reduction ED30 ([3]; oral, 2 hours after challenge): 15.0 mg/kg
- MPE 0.5 hrs. (CFA-induced hyperalgesia; 3 mg/Kg i.p.): 36%
- MPE 1.5 hrs. (CFA-induced hyperalgesia; 3 mg/Kg i.p.): 40%
- MPE 3 hrs. (CFA-induced hyperalgesia; 3 mg/Kg i.p.): 7%
- MPE 0.5 hrs. (CFA-induced hyperalgesia; 10 mg/Kg i.p.): 94%
- MPE 1.5 hrs. (CFA-induced hyperalgesia; 10 mg/Kg i.p.): 34%
- MPE 3 hrs. (CFA-induced hyperalgesia; 10 mg/Kg i.p.): 11%
- MPE 24 hrs. (CFA-induced hyperalgesia; 10 mg/Kg i.p.): 13%
- MPE 0.5 hrs. (CFA-induced hyperalgesia; 30 mg/Kg i.p.): 188%
- MPE 1.5 hrs. (CFA-induced hyperalgesia; 30 mg/Kg i.p.): 81%
- MPE 3 hrs. (CFA-induced hyperalgesia; 30 mg/Kg i.p.): 34%
- MPE 24 hrs. (CFA-induced hyperalgesia; 30 mg/Kg i.p.): 9%
- MPE 0.5 hrs. ([4]; 3 mg/Kg i.p.): 32%
- MPE 1.5 hrs. ([4]; 3 mg/Kg i.p.): 75%
- MPE 3 hrs. ([4]; 3 mg/Kg i.p.): 8%
- MPE 0.5 hrs. ([4]; 10 mg/Kg i.p.): 76%
- MPE 1.5 hrs. ([4]; 10 mg/Kg i.p.): 107%
- MPE 3 hrs. ([4]; 10 mg/Kg i.p.): 13%
- MPE 0.5 hrs. ([4]; 30 mg/Kg i.p.): 151%
- MPE 1.5 hrs. ([4]; 30 mg/Kg i.p.): 124%
- MPE 3 hrs. ([4]; 30 mg/Kg i.p.): 93%
- MPE (%) ([5]; 3 mg/Kg s.c.): 59%
- MPE (%) ([5]; 10 mg/Kg s.c.): 61%
- MPE (%) ([5]; 30 mg/Kg s.c.): 57%
- ED50 ([5]; Mus musculus, sc): < 3 mg/kg
